Patent US8822468B2 (Novartis AG, priority 2008, dated 2014)

molecular target: T1, cMET receptor tyrosine kinase (GST-cMET (969-1390)) (Homo sapiens, UniProt P08581); test: EPK cMET profiling assay (LanthaScreen TR-FRET antibody based kinase phosphorylation assay); type: biochemical; settings: purified recombinant GST-cMET (969-1390), 2 μM ATP, 50 nM Fluorescein-PolyEAY, 60 minutes at room temperature; read-out: c-Met IC50
T1 construct: made in house
Outline: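 Compounds tested at eight final concentrations from 10 down to 0.003 µM against affinity-purified GST-cMET (969-1390, 0.3 nM) with 2 µM ATP and 50 nM fluorescein-PolyEAY in Tris buffer with MgCl2 and MnCl2, 1 h at room temperature. After EDTA stop, phosphoproduct detected by LanthaScreen TR-FRET with Tb-PY20 antibody, end-point measurement.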

T1 sequence (P08581 969-1390): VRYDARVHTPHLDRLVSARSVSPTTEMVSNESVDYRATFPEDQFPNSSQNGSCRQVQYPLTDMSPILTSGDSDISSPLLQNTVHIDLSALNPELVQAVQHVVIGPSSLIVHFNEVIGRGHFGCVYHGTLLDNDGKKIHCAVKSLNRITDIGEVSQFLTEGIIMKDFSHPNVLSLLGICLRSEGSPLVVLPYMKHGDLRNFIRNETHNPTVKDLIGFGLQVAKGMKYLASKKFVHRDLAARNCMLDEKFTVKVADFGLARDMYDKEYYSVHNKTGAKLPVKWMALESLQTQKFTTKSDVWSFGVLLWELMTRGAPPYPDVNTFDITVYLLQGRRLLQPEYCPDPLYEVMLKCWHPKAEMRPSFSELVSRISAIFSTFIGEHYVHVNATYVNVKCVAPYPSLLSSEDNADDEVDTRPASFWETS

Compared with `Cn1cc(-c2ccc3ncc(Cc4cc5cn[nH]c5cc4F)n3n2)cn1` [Example 167, 3-(6-Fluoro-1H-indazol-5-ylmethyl)-6-(1-methyl-1H-pyrazol-4-yl)-imidazo[1,2-b]pyridazine], `COCCOCCn1cc(-c2ccc3ncc(Cc4cc5cccnc5cc4F)n3n2)cn1` [Example 233, 7-Fluoro-6-(6-{1-[2-(2-methoxy-ethoxy)-ethyl]-1H-pyrazol-4-yl}-imidazo[1,2-b]pyridazin-3-ylmethyl)-quinoline] is 20-fold higher in IC50: 6 nM for the first, 120 nM for the second.

First: CC(c1cc2cccnc2cc1F)c1cnc2ccc(-c3cnn(C4CCN(C)CC4)c3)nn12 (racemic) [Example 259, (rac)-7-Fluoro-6-(1-{6-[1-(1-methyl-piperidin-4-yl)-1H-pyrazol-4-yl]-imidazo[1,2-b]pyridazin-3-yl}-ethyl)-quinoline]
Second: [2H]C([2H])(c1ccc2ncccc2c1)c1cnc2ccc(-c3cnn(C)c3)nn12 [Example 143, 6{Dideutero-[6-(1-methyl-1H-pyrazol-4-yl)-imidazo[1,2-b]pyridazin-3-ylmethyl]}-quinoline]
The IC50 of the first is 1.9-fold lower: 23 nM for the first, 44 nM for the second. The first is the more potent here.

First: c1cnc2ccc(Cc3cnc4ccc(N5CCC6(CC5)OCCO6)nn34)cc2c1 [Example 110, 6-[6-(1,4-Dioxa-8-aza-spiro[4.5]dec-8-yl)-imidazo[1,2-b]pyridazin-3-ylmethyl]-quinoline]
Second: FC(F)(F)c1cccc(-c2ccc3ncc(Cc4ccc5ncccc5c4)n3n2)c1 [Example 18, 6-[6-(3-Trifluoromethyl-phenyl)-imidazo[1,2-b]pyridazin-3-ylmethyl]-quinoline]
The IC50 of the first is 1.6-fold lower: 42 nM for the first, 65.5 nM for the second. The first is the more potent here.

In the case of `Cn1cc(-c2ccc3ncc(Cc4ccc5ncc(CO)n5c4)n3n2)cn1` [Example 300, {6-[6-(1-Methyl-1H-pyrazol-4-yl)-imidazo[1,2-b]pyridazin-3-ylmethyl]-imidazo[1,2-a]pyridin-3-yl}-methanol], the IC50 is reported as 300 nM.
